For data set [1], the system named is skin explants from the abdominal tissue. The data set can be described thus: General morphology of ex vivo skin explants, cortisol-induced premature senescence (Masson's trichrome). It is filed as cell-based, human. Here is the method:
Thirty three skin explants from the abdominal tissue of a donor, of an average diameter of 10 mm (±1 mm) were prepared.
The formula with 0.1% cortisol was applied topically on days 2, 5, 6 and 7.
On day 0, the three explants from the batch BO were collected and cut in two parts. One half was fixed in buffered formalin, and the other half was frozen at −80° C. On day 9, three explants from all other batches were collected and processed in the same way.
Sections were then mounted on Superfrost® plus silanized glass slides. The microscopical observations were made using a Leica DMLB or Orthoplan microscope. Pictures were digitized with a numeric DP72 Olympus camera with CellD storing software.
The observation of the general morphology was realized after staining of paraffinized sections according to Masson's trichrome, Goldner variant.

For a further data set, the system named is progerin. Briefly: Progerin immunostaining of ex vivo skin explants. It is filed as cell-based, human.
Another data set deals with p21. Briefly: p21 immunostaining of ex vivo skin explants. It is filed as cell-based, human.
Data set [2] concerns fibroblasts from an abdominoplasty. Briefly: GlaSbox contractile forces of fibroblasts on collagen lattices (stimulation, Example 3). It is filed as cell-based, human. Particulars: 2.5 ng/ml, 24 hours. The source says: In this study, the GlaSbox® system was used to analyze the effect of cosmetic raw materials, TGFβ1, Taisoh Liquid B Jujube Extract (Ziziphus jujuba fruit), available from Ichimaru Pharcos, and Uplevity, available from Lipotec. TGFβ1, used in this study as a positive control, is known to play a role in cellular functions, including cell proliferation, differentiation, wound healing and matrix-related processes. Taisoh Liquid B Jujube Extract has been reported to stimulate wound healing. […]
Fibroblasts were embedded three-dimensionally in hydrated collagen gels composed of 6 volumes of 1.76× (DMEMc, NaHCO3, NaOH, antibiotics), 3 volumes rat tail type I collagen (2 mg/ml) and 1 volume of cellular suspension (8×10^5 cells/ml) using a modified version of the technique developed by Bell et al. (Production of a tissue-like structure by contraction of collagen lattices by human fibroblasts of different proliferative potential in vitro. Proc. Natl. Acad. Sci. USA 76, 1274-1278 (1979). The lattice mixture was poured into the rectangular culture plate of the GlaSbox® and polymerized in less than 30 minutes at 37° C. […] The forces were expressed as arbitrary units (AU) after 24 hours of measurement. […]

A further data set deals with tropoelastin. The data set can be described thus: Tropoelastin synthesis by HDFs. It counts as cell-based, human. The following applies: 5 pg/ml. Here is the method: (§1) HDFs, at passage 4, were plated in 96 well plates. After the cells reached confluency they were placed under starvation conditions for 48 hours. Cells then were treated with test materials in cell medium for 72 hours after which the medium was collected for analysis of elastin (Elastin Elisa assay, SOP D.33). Cell viability also was measured using the MTT assay (SOP D.29). Statistical analysis was performed with an ANOVA+Fisher LSD post hoc test. A p value of less than 0.05 was considered significant.
(§2) The results are presented as pg/ml elastin corrected for viability. The percent increase in elastin release is calculated as:
(§3) % increase=[Amount Elastinactive/Amount Elastincontrol]×100−100

The subject of another data set is fibrillin-1. Briefly: Fibrillin-1 release by HDFs (sandwich ELISA). It is filed as cell-based, human. The following applies: positive control, 100 ng/ml, 24 hours. Here is the method: Fibrillins, glycoproteins secreted by fibroblasts, are essential for the formation of elastic fibers found in connective tissue. Test compounds Mitostime (extract of Laminaria digitata) and Milk Peptide Complex (MPC or whey protein, available from CLR, Germany) were evaluated for their capacity to stimulate the synthesis of fibrillin-1 in HDFs.
An aliquot of a selected fibroblast cell line (HDFs) was thawed, placed into culture, and allowed to establish good growth before passaging into a 24-well plate (5×10^4 cells/1 ml well). After overnight adhesion to the well, test compounds were added to the medium at three different concentrations and the cells were incubated for 24 hours. A positive control of 100 ng/ml TGFβ1, was included. The negative controls used were 0.1% BSA and 0.1% EtOH. After 24 hours, medium was harvested, centrifuged, and transferred to fibrillin-1 sandwich ELISA plates to determine the amount of fibrillin released.
In general terms: ELISA stands for enzyme-linked immunosorbent assay.

For another data set, the system named is elastin. Briefly: Elastin release by HDFs (Elastin Elisa). It counts as cell-based, human. The following applies: 2.5 mg/ml, 72 hours. Here is the method: as §1, §2, §3
In data set [3] the test system is fibroblasts from abdominal skin. Briefly: GlaSbox contractile forces on collagen lattices, with or without cortisol, abdominal fibroblasts. It is filed as cell-based, human. The following applies: cortisol 250 ng/ml. The source says:
In this study, the GlaSbox® system was used to analyze the effect of cortisol, with and without test materials, on the contractile forces generated by fibroblasts populating collagen lattices. The GlaSbox® device differs from other collagen lattice systems in that it uses a fixed, non-floating collagen lattice where the diameter of the collagen lattice remains constant but electrodes measure the actual contractile forces exerted by the cells on the collagen lattice.
Fibroblasts were obtained from eyelid and abdominal skin of Chinese female donors. The effect of Biobenefity and Albizia julibrissin on the contractile forces of fibroblasts originating from eyelid, with or without exposure to cortisol (250 ng/ml), were evaluated.
Two fibroblast cell types, one originating from eyelid and the other one from abdominal skin tissue, were purchased from Tebu-Bio (Boechout, Belgium). These cell types were isolated from different donors, each being a person. […] The forces are expressed as arbitrary units.
Each Glasbox® curve was fitted with GraphPad Prism® software to determine the area under the curve (AUC) and the maximum of contraction (Max). […] Data are expressed as mean±standard deviation. The measurement of contractile forces was analyzed by means of a variance analysis with two factors (group versus control and time). […]

Data set [4] concerns Human dermal fibroblasts (HDFs). The data set can be described thus: Free floating fibroblast-populated collagen lattice (FPCL) contraction. It counts as cell-based. Here is the method:
Human dermal fibroblasts (HDFs, passages 6-7) were maintained in Falcon 75 cm^2 tissue culture flasks in DMEM supplemented with 10% FBS. Cells were harvested from monolayer culture, and placed in 6-well culture plates (1×10^5 cells/well). Cells were pretreated with 25 μM hydrocortisone or with a combination of 25 μM hydrocortisone and different concentrations of test materials for 24 hours before being applied to free floating fibroblast populated collagen lattices.
Gels containing collagen HDFs were prepared as described by Tomasek, J. J., et al. (Fibroblast contraction occurs on release of tension in attached collagen lattices: dependency on an organized actin cytoskeleton and serum. Anat. Rec., 1992, March; 232(3):359-68), incorporated herein by reference in its entirety, with modifications as follows. Briefly, collagen solution (Corning, Rat tail, 354236), concentrated DMEM, 0.1N NaOH and FBS, were gently mixed at 4° C., giving a suspension at a final density of 5×10^5 cells and 3 mg/ml collagen. The collagen/cell suspension (2 ml total) was poured on 35 mm-uncoated dish and allowed to polymerize for 45 minutes at 37° C. Then lattices were released and gels were allowed to float in the medium. […]
Fibroblast contractility was assessed by measuring changes in the surface area of collagen I gels mediated by fibroblasts. […] Thereafter, lattice diameter was measured. […]

The subject of the next data set is fibroblasts from eyelid. Briefly: GlaSbox contractile forces on collagen lattices, with or without cortisol, eyelid fibroblasts. It counts as cell-based, human. The following applies: cortisol 250 ng/ml. The source says: In this study, the GlaSbox® system was used to analyze the effect of cortisol, with and without test materials, on the contractile forces generated by fibroblasts populating collagen lattices. The GlaSbox® device differs from other collagen lattice systems in that it uses a fixed, non-floating collagen lattice where the diameter of the collagen lattice remains constant but electrodes measure the actual contractile forces exerted by the cells on the collagen lattice. Fibroblasts were obtained from eyelid and abdominal skin of Chinese female donors. The effect of Biobenefity and Albizia julibrissin on the contractile forces of fibroblasts originating from eyelid, with or without exposure to cortisol (250 ng/ml), were evaluated. Two fibroblast cell types, one originating from eyelid and the other one from abdominal skin tissue, were purchased from Tebu-Bio (Boechout, Belgium). These cell types were isolated from different donors, each being a person. The fibroblasts were embedded three-dimensionally in hydrated collagen gel lattices. […] The forces are expressed as arbitrary units. […] Data are expressed as mean±standard deviation. The measurement of contractile forces was analyzed by means of a variance analysis with two factors (group versus control and time). […]

Setting [5] is: day 9, with 0.1% cortisol, Biwa leaf, Biobenefity, Juvinity 0.5% w/v, IBR Dormin 0.1% w/v.
The mark [6] stands for this setting: 0.1% cortisol, day 9, versus untreated.

Values joined by “and” are separate entries in the source; they are usually repeats but may differ in a detail not shown here. Equal values may be shown once.

Method for p21: (§4) After fixation for 24 hours in buffered formalin, the samples were dehydrated and impregnated in paraffin using a Leica TP 1010 dehydration automat. The samples were then embedded using a Leica EG 1160 embedding station. 5-μm-thick sections were made using a Leica RM 2125 Minot-type microtome, and the sections were then mounted on Superfrost® histological glass slides.
(§5) The immunostaining was assessed by microscopical observation.
The evaluation of the p21 immunostained pictures was based on both the number of cells that were stained as well as the staining intensity in each cell.
Method for progerin: as §4, §5
Progerin staining intensity was measured in a similar way as for p21.

In the case of `CC(C)=CCCC(C)=CCCC(C)=CCCC(C)=CCCC(C)O` (stereo not shown) [Juvinity, Geranylgeranyl-2-propanol], the “General morphology of explants” value in data set [1] (day 9, absence of cortisol, Biwa leaf, Biobenefity, Juvinity 0.5% w/v, IBR Dormin 0.1% w/v in medium) was “altered morphology, with pycnotic nuclei and cellular spongiosis”. For the same compound, the “Effect on cortisol-induced morphology (epidermal thickness)” value in [1] (day 9, with topical 0.1% cortisol, Biwa leaf, Biobenefity, Juvinity 0.5% w/v, IBR Dormin 0.1% w/v) is on record as “did not have any beneficial effect”. The “Effect on cortisol-induced increase in progerin staining intensity” value with progerin (setting [5]) is reported as “did not show a beneficial effect”. Further, the “Effect on cortisol-induced increase in p21 staining intensity” value in the data set on p21 (setting [5]) is listed as “partially reduce”.
On to “TGFβ1: Transforming Growth Factor β, secreted protein used as a positive control”, for which, in [2], the “Increase of contractile forces (AUC)” value came to 25.5% and the “Increase of maximum contraction” value is on record as 26.0%. The “Increase in tropoelastin synthesis versus untreated cells” value with tropoelastin is recorded as 175%. The “Fibrillin release at baseline level” value in the data set on fibrillin-1 is “stimulate the fibrillin release”.
On to `O=C[C@H](O)[C@H](O)[C@H](O)CO` [Riboxyl, D-ribose], for which the “Increase in elastin synthesis versus untreated cells” value with elastin is on record as 66%.
For `C[C@]12CCC(=O)C=C1CC[C@@H]1[C@@H]2[C@@H](O)C[C@@]2(C)[C@H]1CC[C@]2(O)C(=O)CO` [cortisol], the “Contractile forces (AUC and maximum contractile force)” value (in data set [3]; in the data set on fibroblasts from eyelid) was “significant decrease” in each case. Further, the “General morphology of explants” value in data set [1] (0.1% cortisol topically during 7 days (day 2 to day 9)) was “moderate epidermal atrophy”. Moreover, the “Decrease of lattice contraction versus untreated lattices” value is 11.8% and 9% in data set [4] (25 μM, listed as hydrocortisone); 18% in data set [4] (50 μM). The Progerin staining intensity entry in the data set on progerin (setting [6]) is “increased from weak to moderate”. Further, the “p21 staining intensity (semi-quantitative grading)” value in the data set with p21 (setting [6]) is “from very weak to moderate”.
